# Read-outs that look alike come from different tables or passages of the source.
# Columns and labels:
# [1] = Stability study of solutions comprising Mesna and riboflavin 5′-phosphate sodium (HPLC quantification of Mesna); assay type: physicochemical; details: 4° C. and 20° C.
# Experimental: A stability study was conducted for the purpose of evaluating a possible interaction between riboflavin 5′-phosphate sodium, a dye accepted for parenteral use in humans, and Mesna. […]
# In order to validate the obtained data, a reference corresponding to a reconstituted solution of Mesna without riboflavin 5′-phosphate sodium was analyzed at the same time as the samples comprising riboflavin 5′-phosphate sodium (Table 5).
# [2] = Stability study of Mesna powder in the presence of riboflavin 5′-phosphate sodium (weight, dry oven); assay type: physicochemical
# Experimental: About 1.5 g of Mesna powder was accurately weighed, without or with 7 mg or 15 mg of riboflavin 5′-phosphate sodium, and placed in a dry oven at 20° C. for 1 month to test its stability (Table 6).
# [3] = rats, intraduodenal administration compared with i.v.; cited from earlier work
# [4] = cited from earlier work
structure (smiles),measurement,setting,value
Cc1cc2nc3c(=O)[nH]c(=O)nc-3n(C[C@H](O)[C@H](O)[C@H](O)COP(=O)([O-])O)c2cc1C.[Na+] [riboflavin 5′-phosphate sodium],interaction of riboflavin 5′-phosphate sodium with Mesna in solution (conclusion),"[1]; phosphate buffer, 1 h and 24 h",does not interfere with or degrade Mesna
O=S(=O)([O-])CCS.[Na+] [1.5 g Mesna powder],W1 = weight after 1 month in dry oven at 20° C.,"[2]; after 1 month in dry oven at 20° C., ± standard deviation",4.807 ± 0.016 g
same,W0 = weight before placement in dry oven at 20° C.,"[2]; before placement in dry oven, ± standard deviation",4.907 ± 0.038 g
"O=S(=O)([O-])CCS.[Na+] [Mesna, sodium 2-mercaptoethanesulfonate]",variations in Mesna content after addition of riboflavin 5′-phosphate sodium,"[1]; 0.23 mg/mL and 0.50 mg/mL RF5′PNa, before the 24 h point",≤ 1%
same,stability of Mesna in dry form in the presence of riboflavin 5′-phosphate sodium (conclusion),"[2]; dry form, 1 month at 20° C.",stable
CN(C)c1ccc2nc3ccc(=[N+](C)C)cc-3sc2c1 [methylene blue],tissue concentrations after intraduodenal versus i.v. administration,[3],higher concentrations in intestinal wall and liver but lower concentrations in whole blood and brain
same,effect of co-administration of mesna on pharmacokinetics,[4]; 100 mg methylene blue with and without mesna,did not alter the pharmacokinetics
same,urinary excretion of methylene blue and its leucoform,[4]; i.v. administration (second value of the pair),28 % dose
same,urinary excretion of methylene blue and its leucoform,[4]; oral administration (first value of the pair),18 % dose
same,estimated terminal half-life,"[4]; whole blood, i.v. administration of 100 mg, seven volunteers",5.25 h
same,area under the concentration-time curve,"[4]; whole blood, i.v. administration of 100 mg",137 nmol/min/mL
same,area under the concentration-time curve,"[4]; whole blood, oral administration of 100 mg",9 nmol/min/mL

# From patent US20210137549A1, “DEVICE FOR CHEMICALLY ASSISTED DISSECTION” (AuXin Surgery SA, priority 2013, published 2021)
